Experimental data from ChEMBL document CHEMBL2346616, “Design and synthesis of novel pyrimido[4,5-b]azepine derivatives as HER2/EGFR dual inhibitors” (Bioorg Med Chem, 2013).
pIC50: −log10 of the molar value. Values belong to the compound of their own block, whether it stands above or below them. Activity calls are given as the source filed them. The calls are words filed in the database; no cut-off is given here.

What was measured:
[1] = molecular target: Epidermal growth factor receptor (Homo sapiens, UniProt P00533); test: Inhibition of human N-terminal DYKDDDD-tagged EGFR cytoplasmic domain (669 to 1210) expressed in baculovirus expression system incubated for 5 mins prior to [gamma-32P]ATP addition measured after 10 mins by scintillation counting analysis
[2] = molecular target: T1, Receptor tyrosine-protein kinase erbB-2 (Homo sapiens, UniProt P04626); test: Inhibition of human N-terminal DYKDDDD-tagged HER2 cytoplasmic domain (676 to 1255) expressed in baculovirus expression system incubated for 5 mins prior to [gamma-32P]ATP addition measured after 10 mins by scintillation counting analysis
BT-474 = test: Growth inhibition of human BT474 cells overexpressing HER2 after 5 days; assay type: functional; conditions: BT-474, 120 h
[3] = Inhibition of PKA (unknown origin) expressed in Escherichia coli expression system incubated for 5 mins prior to [gamma-33P]ATP addition measured after 10 mins by scintillation counting analysis; set-up: species or system Homo sapiens
[4] = molecular target: Protein kinase C theta type (Homo sapiens, UniProt Q04759); test: Inhibition of N-terminal FLAG-tagged PKCtheta (unknown origin) expressed in baculovirus expression system incubated for 5 mins prior to [gamma-33P]ATP addition measured after 60 mins by scintillation counting analysis
[5] = molecular target: Dual specificity mitogen-activated protein kinase kinase 5 (Homo sapiens, UniProt Q13163); test: Inhibition of N-terminal FLAG-tagged MEK5 (unknown origin) expressed in baculovirus expression system incubated for 5 mins prior to [gamma-33P]ATP addition measured after 30 mins by scintillation counting analysis
[6] = molecular target: Insulin-like growth factor 1 receptor (Homo sapiens, UniProt P08069); test: Inhibition of IGF1R (unknown origin) incubated for 5 mins prior to ATP addition measured after 20 mins by Alphascreen assay
[7] = molecular target: Vascular endothelial growth factor receptor 1 (Homo sapiens, UniProt P17948); test: Inhibition of VEGFR1 (unknown origin) incubated for 5 mins prior to ATP addition measured after 5 mins by Alphascreen assay
[8] = molecular target: Receptor tyrosine-protein kinase erbB-4 (Homo sapiens, UniProt Q15303); test: Inhibition of HER4 cytoplasmic domain (unknown origin) expressed in baculovirus expression system incubated for 5 mins prior to [gamma-32P]ATP addition measured after 10 mins by scintillation counting analysis
[9] = molecular target: Tyrosine-protein kinase Lck (Homo sapiens, UniProt P06239); test: Inhibition of LCK (unknown origin) incubated for 5 mins prior to ATP addition measured after 30 mins by Alphascreen assay
[10] = molecular target: Mitogen-activated protein kinase 8 (Homo sapiens, UniProt P45983); test: Inhibition of N-terminal FLAG-tagged JNK1 (unknown origin) expressed in baculovirus expression system incubated for 5 mins prior to [gamma-33P]ATP addition measured after 60 mins by scintillation counting analysis
[11] = molecular target: Mitogen-activated protein kinase 14 (Homo sapiens, UniProt Q16539); test: Inhibition of N-terminal FLAG-tagged p38alpha (unknown origin) expressed in baculovirus expression system incubated for 5 mins prior to [gamma-33P]ATP addition measured after 60 mins by scintillation counting analysis
[12] = molecular target: Mitogen-activated protein kinase kinase kinase 1 (Homo sapiens, UniProt Q13233); test: Inhibition of C-terminal FLAG-tagged MEKK (unknown origin) expressed in baculovirus expression system incubated for 5 mins prior to [gamma-33P]ATP addition measured after 60 mins by scintillation counting analysis
[13] = molecular target: Fibroblast growth factor receptor 3 (Homo sapiens, UniProt P22607); test: Inhibition of FGFR3 (unknown origin) incubated for 5 mins prior to ATP addition measured after 10 mins by Alphascreen assay
[14] = molecular target: Mitogen-activated protein kinase 3 (Homo sapiens, UniProt P27361); test: Inhibition of N-terminal FLAG-tagged ERK1 (unknown origin) expressed in baculovirus expression system incubated for 5 mins prior to [gamma-33P]ATP addition measured after 60 mins by scintillation counting analysis
Insulin receptor = Insulin receptor (Homo sapiens, UniProt P06213); test: Inhibition of InsR (unknown origin) incubated for 5 mins prior to ATP addition measured after 60 mins by Alphascreen assay
[15] = molecular target: Mitogen-activated protein kinase kinase kinase 5 (Homo sapiens, UniProt Q99683); test: Inhibition of N-terminal FLAG-tagged ASK1 (unknown origin) expressed in baculovirus expression system incubated for 5 mins prior to [gamma-33P]ATP addition measured after 60 mins by scintillation counting analysis
[16] = molecular target: Platelet-derived growth factor receptor alpha (Homo sapiens, UniProt P16234); test: Inhibition of PDGFRalpha (unknown origin) incubated for 5 mins prior to ATP addition measured after 30 mins by Alphascreen assay
[17] = molecular target: Glycogen synthase kinase-3 beta (Homo sapiens, UniProt P49841); test: Inhibition of N-terminal FLAG-tagged GSK3beta (unknown origin) expressed in baculovirus expression system incubated for 5 mins prior to [gamma-33P]ATP addition measured after 30 mins by scintillation counting analysis
Aurora kinase B = Aurora kinase B (Homo sapiens, UniProt Q96GD4); test: Inhibition of N-terminal His6x-tagged aurora-B (unknown origin) expressed in baculovirus expression system incubated for 5 mins prior to [gamma-33P]ATP addition measured after 60 mins by scintillation counting analysis
[18] = molecular target: Tyrosine-protein kinase ZAP-70 (Homo sapiens, UniProt P43403); test: Inhibition of ZAP70 (unknown origin) incubated for 5 mins prior to ATP addition measured after 10 mins by Alphascreen assay
[19] = molecular target: Tyrosine-protein kinase CSK (Homo sapiens, UniProt P41240); test: Inhibition of CSK (unknown origin) incubated for 5 mins prior to ATP addition measured after 10 mins by Alphascreen assay
[20] = molecular target: Dual specificity mitogen-activated protein kinase kinase 1 (Homo sapiens, UniProt Q02750); test: Inhibition of N-terminal GST-fused MEK1 (unknown origin) incubated for 5 mins prior to [gamma-33P]ATP addition measured after 20 mins by scintillation counting analysis
[21] = molecular target: Dual specificity protein kinase TTK (Homo sapiens, UniProt P33981); test: Inhibition of N-terminal FLAG-tagged TTK (unknown origin) expressed in baculovirus expression system incubated for 5 mins prior to [gamma-33P]ATP addition measured after 10 mins by scintillation counting analysis
[22] = molecular target: Fibroblast growth factor receptor 1 (Homo sapiens, UniProt P11362); test: Inhibition of FGFR1 (unknown origin) incubated for 5 mins prior to ATP addition measured after 10 mins by Alphascreen assay
[23] = molecular target: Platelet-derived growth factor receptor beta (Homo sapiens, UniProt P09619); test: Inhibition of PDGFRbeta (unknown origin) incubated for 5 mins prior to ATP addition measured after 60 mins by Alphascreen assay
[24] = molecular target: Cytoplasmic tyrosine-protein kinase BMX (Homo sapiens, UniProt P51813); test: Inhibition of N-terminal FLAG-tagged full length BMX (unknown origin) expressed in baculovirus expression system incubated for 5 mins prior to ATP addition measured after 10 mins by Alphascreen assay
[25] = molecular target: Vascular endothelial growth factor receptor 2 (Homo sapiens, UniProt P35968); test: Inhibition of N-terminal FLAG-tagged VEGFR2 cytoplasmic domain (unknown origin) incubated for 5 mins prior to ATP addition measured after 10 mins by Alphascreen assay
[26] = molecular target: T2, Tyrosine-protein kinase Lyn (Homo sapiens, UniProt P07948); test: Inhibition of LYNB (unknown origin) incubated for 5 mins prior to ATP addition measured after 10 mins by Alphascreen assay
[27] = molecular target: T2, Tyrosine-protein kinase Lyn; test: Inhibition of LYNA (unknown origin) incubated for 5 mins prior to ATP addition measured after 10 mins by Alphascreen assay
[28] = molecular target: Serine/threonine-protein kinase B-raf (Homo sapiens, UniProt P15056); test: Inhibition of wild type N-terminal FLAG-tagged B-raf (unknown origin) expressed in baculovirus expression system incubated for 5 mins prior to [gamma-33P]ATP addition measured after 20 mins by scintillation counting analysis
[29] = molecular target: Mast/stem cell growth factor receptor Kit (Homo sapiens, UniProt P10721); test: Inhibition of c-kit (unknown origin) incubated for 5 mins prior to ATP addition measured after 20 mins by Alphascreen assay
[30] = molecular target: T1, Receptor tyrosine-protein kinase erbB-2; test: Pseudo-irreversible inhibition of human N-terminal DYKDDDD-tagged HER2 cytoplasmic domain (676 to 1255) expressed in baculovirus expression system at 10 times IC50 preincubated for 15 mins followed by 100 fold dilution measured after 16 hrs by Alphascreen assay
[31] = molecular target: Inhibitor of nuclear factor kappa-B kinase subunit beta (Homo sapiens, UniProt O14920); test: Inhibition of C-terminal FLAG-tagged IKKbeta (unknown origin) expressed in baculovirus expression system incubated for 5 mins prior to [gamma-33P]ATP addition measured after 5 mins by scintillation counting analysis
Angiopoietin-1 receptor = Angiopoietin-1 receptor (Homo sapiens, UniProt Q02763); test: Inhibition of TIE2 (unknown origin) incubated for 5 mins prior to ATP addition measured after 10 mins by Alphascreen assay
[32] = molecular target: Serine/threonine-protein kinase PLK1 (Homo sapiens, UniProt P53350); test: Inhibition of N-terminal FLAG-tagged PLK (unknown origin) expressed in baculovirus expression system incubated for 5 mins prior to [gamma-33P]ATP addition measured after 40 mins by scintillation counting analysis
[33] = molecular target: Hepatocyte growth factor receptor (Homo sapiens, UniProt P08581); test: Inhibition of c-MET (unknown origin) incubated for 5 mins prior to ATP addition measured after 10 mins by Alphascreen assay

T1 sequence (P04626 whole entry, the tested form may be a part): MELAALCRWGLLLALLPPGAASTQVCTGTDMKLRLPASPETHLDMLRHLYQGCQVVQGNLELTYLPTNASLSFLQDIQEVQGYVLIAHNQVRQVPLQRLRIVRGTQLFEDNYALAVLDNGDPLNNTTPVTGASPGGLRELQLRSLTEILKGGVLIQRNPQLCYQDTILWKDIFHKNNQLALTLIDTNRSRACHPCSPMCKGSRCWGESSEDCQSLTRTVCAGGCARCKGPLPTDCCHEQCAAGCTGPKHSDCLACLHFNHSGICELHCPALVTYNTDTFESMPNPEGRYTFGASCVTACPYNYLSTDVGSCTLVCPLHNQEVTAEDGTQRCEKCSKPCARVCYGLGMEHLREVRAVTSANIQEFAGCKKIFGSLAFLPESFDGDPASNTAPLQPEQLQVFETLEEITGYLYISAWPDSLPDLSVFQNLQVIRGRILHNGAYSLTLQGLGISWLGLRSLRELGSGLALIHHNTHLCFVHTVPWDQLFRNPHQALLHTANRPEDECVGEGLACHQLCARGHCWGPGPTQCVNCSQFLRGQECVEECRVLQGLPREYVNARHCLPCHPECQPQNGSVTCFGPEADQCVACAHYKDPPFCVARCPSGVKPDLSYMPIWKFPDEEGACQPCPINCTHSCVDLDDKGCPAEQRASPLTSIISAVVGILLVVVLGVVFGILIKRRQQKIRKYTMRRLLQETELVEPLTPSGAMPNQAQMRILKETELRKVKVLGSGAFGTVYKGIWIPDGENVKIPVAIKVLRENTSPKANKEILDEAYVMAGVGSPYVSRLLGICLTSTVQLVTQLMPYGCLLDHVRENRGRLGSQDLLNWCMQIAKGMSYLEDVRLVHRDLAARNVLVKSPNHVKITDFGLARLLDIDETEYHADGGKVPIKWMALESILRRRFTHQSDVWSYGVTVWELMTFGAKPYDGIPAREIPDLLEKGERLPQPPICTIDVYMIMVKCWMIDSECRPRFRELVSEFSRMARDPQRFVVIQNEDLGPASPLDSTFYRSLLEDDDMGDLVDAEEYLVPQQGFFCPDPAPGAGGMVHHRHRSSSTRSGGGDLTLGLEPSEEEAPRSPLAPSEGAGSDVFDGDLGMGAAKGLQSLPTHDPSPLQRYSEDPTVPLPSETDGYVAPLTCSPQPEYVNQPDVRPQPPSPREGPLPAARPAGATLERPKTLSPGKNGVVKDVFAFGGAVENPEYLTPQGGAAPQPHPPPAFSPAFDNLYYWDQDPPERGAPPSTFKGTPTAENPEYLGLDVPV
Epidermal growth factor receptor, sequence (P00533 whole entry, the tested form may be a part): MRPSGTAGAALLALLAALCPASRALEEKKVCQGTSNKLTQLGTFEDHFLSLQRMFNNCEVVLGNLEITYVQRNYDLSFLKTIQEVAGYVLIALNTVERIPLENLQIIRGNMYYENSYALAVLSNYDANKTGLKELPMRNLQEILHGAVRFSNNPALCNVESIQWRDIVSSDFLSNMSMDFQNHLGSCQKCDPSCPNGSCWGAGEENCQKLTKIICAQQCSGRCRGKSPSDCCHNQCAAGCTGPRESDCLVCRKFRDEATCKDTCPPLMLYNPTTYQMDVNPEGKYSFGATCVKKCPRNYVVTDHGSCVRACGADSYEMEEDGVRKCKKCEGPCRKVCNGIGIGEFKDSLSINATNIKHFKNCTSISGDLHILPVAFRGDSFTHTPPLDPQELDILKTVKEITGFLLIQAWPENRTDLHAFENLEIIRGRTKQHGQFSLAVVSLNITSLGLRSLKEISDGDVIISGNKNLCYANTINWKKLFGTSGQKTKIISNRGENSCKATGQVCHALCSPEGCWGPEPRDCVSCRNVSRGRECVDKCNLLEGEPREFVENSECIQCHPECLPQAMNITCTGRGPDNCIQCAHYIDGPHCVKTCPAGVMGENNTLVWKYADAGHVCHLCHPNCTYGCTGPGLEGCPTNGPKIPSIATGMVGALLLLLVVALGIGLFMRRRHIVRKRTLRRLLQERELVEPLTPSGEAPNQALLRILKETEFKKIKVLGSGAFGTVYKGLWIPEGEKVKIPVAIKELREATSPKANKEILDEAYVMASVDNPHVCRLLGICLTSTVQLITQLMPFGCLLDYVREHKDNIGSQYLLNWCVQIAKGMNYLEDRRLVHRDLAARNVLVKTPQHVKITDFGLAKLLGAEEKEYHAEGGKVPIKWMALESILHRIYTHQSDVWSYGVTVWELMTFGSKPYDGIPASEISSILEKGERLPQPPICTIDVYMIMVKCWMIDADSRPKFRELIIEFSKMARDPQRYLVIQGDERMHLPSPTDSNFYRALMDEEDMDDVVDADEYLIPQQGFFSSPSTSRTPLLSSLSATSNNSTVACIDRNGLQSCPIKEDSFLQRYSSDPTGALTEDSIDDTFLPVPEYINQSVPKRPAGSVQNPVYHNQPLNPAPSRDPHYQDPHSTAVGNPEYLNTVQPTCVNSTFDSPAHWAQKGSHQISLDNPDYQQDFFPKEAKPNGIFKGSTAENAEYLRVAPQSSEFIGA
T2 sequence (P07948 whole entry): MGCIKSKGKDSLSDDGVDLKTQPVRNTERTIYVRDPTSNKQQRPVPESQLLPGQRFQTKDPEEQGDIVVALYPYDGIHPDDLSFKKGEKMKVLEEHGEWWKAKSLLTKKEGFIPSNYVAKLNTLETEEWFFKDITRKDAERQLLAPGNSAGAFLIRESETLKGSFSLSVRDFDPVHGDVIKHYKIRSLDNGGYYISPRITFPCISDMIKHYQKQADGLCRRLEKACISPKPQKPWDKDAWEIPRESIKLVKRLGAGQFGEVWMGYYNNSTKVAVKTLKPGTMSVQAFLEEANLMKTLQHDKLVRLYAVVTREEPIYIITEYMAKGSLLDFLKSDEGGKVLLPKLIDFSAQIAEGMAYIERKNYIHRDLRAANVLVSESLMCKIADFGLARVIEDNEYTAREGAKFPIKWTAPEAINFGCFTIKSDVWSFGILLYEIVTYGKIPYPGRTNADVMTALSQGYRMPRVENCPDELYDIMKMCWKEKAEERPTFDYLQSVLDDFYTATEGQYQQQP
Fibroblast growth factor receptor 1, sequence (P11362 whole entry): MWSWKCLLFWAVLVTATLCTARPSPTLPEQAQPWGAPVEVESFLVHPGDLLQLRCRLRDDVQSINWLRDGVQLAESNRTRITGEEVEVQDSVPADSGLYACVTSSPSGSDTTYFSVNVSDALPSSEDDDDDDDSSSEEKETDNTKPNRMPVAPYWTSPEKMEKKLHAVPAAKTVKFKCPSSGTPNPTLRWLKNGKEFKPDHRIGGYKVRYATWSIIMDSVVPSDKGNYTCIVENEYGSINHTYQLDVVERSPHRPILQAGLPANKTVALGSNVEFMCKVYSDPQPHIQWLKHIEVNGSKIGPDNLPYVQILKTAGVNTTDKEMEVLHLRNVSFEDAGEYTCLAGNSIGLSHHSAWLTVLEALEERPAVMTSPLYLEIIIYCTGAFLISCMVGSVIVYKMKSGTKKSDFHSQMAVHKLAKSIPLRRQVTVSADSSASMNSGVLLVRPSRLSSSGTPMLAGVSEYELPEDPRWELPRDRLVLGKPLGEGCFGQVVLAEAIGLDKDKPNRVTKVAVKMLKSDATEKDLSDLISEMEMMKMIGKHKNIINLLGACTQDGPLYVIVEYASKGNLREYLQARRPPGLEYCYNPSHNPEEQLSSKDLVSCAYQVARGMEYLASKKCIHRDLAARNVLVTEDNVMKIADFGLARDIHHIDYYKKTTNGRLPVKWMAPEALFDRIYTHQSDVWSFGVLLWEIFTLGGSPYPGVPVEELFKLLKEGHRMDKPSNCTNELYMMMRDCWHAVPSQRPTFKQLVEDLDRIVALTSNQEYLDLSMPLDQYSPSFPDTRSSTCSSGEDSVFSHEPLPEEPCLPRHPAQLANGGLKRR
Inhibitor of nuclear factor kappa-B kinase subunit beta, sequence (O14920 whole entry): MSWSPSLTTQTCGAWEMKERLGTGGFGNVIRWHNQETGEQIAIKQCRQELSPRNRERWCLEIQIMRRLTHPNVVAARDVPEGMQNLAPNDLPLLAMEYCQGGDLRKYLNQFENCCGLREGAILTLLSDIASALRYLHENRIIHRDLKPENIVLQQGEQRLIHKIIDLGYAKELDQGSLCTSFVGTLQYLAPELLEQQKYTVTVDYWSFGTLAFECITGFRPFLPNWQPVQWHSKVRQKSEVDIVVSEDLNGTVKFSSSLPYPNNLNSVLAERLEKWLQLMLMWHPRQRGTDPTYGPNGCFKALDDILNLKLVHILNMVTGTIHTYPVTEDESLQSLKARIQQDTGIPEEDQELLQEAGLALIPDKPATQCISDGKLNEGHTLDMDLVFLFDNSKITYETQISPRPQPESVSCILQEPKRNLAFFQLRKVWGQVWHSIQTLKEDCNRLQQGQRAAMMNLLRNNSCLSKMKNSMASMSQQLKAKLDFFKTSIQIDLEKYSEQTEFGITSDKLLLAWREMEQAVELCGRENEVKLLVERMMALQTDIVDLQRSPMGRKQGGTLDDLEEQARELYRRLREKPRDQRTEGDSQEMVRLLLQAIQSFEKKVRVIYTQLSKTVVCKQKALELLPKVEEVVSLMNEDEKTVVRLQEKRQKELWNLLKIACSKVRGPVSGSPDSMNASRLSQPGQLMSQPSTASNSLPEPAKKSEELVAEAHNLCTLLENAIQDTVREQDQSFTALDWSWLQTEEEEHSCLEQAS
Glycogen synthase kinase-3 beta, sequence (P49841 whole entry): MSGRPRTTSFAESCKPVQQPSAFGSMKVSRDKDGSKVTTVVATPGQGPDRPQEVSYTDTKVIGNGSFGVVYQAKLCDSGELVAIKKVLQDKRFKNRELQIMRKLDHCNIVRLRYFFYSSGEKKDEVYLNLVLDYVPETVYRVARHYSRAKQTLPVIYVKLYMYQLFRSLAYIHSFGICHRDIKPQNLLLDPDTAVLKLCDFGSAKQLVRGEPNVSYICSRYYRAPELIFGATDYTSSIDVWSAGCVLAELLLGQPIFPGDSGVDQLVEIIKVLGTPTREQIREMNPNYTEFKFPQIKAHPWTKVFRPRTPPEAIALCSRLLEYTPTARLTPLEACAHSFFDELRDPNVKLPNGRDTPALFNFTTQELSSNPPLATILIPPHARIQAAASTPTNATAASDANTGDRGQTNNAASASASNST

pIC50 [1]: 7.36
pIC50 [2]: 7.74
GI50 (BT-474): 190 nM
Structure (SMILES): COC(=O)C1=Cc2c(ncnc2Nc2ccc(Oc3cccc4sccc34)c(Cl)c2)NCC1

pIC50 [1]: 6.96
pIC50 [2]: 7.00
GI50 (BT-474): 2000 nM
Structure (SMILES): COC(=O)C1=Cc2c(ncnc2Nc2ccc(Oc3cccc(C(F)(F)F)c3)c(Cl)c2)NCC1

pIC50 [1]: 7.33
pIC50 [2]: 7.52
GI50 (BT-474): 25 nM
Structure (SMILES): CS(=O)(=O)CCNC(=O)C1=Cc2c(ncnc2Nc2ccc(Oc3cccc4sccc34)c(Cl)c2)NCC1

pIC50 [1]: 7.12
pIC50 [2]: 7.19
GI50 (BT-474): 620 nM
Structure (SMILES): CS(=O)(=O)CCNC(=O)C1=Cc2c(ncnc2Nc2ccc(Oc3cccc(C(F)(F)F)c3)c(Cl)c2)NCC1

pIC50 [1]: 7.42
pIC50 [2]: 7.54
GI50 (BT-474): 630 nM
Structure (SMILES): O=C(NCCO)C1=Cc2c(ncnc2Nc2ccc(Oc3cccc(C(F)(F)F)c3)c(Cl)c2)NCC1

pIC50 [3]: < 5.00
pIC50 [4]: < 5.00
pIC50 [5]: 6.06
pIC50 [6]: < 5.00
pIC50 [7]: < 5.00
pIC50 [8]: 6.62
pIC50 [9]: 5.49
pIC50 [10]: < 5.00
pIC50 [11]: 5.77
pIC50 [12]: < 5.00
pIC50 [13]: < 5.00
pIC50 [14]: < 5.00
pIC50 (Insulin receptor): < 5.00
pIC50 [15]: < 5.00
pIC50 [16]: < 5.00
pIC50 [17]: < 5.00
pIC50 (Aurora kinase B): < 5.00
pIC50 [18]: < 5.00
pIC50 [19]: < 5.00
pIC50 [20]: < 5.00
pIC50 [21]: < 5.00
pIC50 [22]: < 5.00
pIC50 [23]: < 5.00
pIC50 [24]: < 5.00
pIC50 [25]: < 5.00
pIC50 [26]: 5.52
pIC50 [2]: 7.62
pIC50 [27]: 5.01
pIC50 [28]: 6.64
pIC50 [29]: < 5.00
inhibition [30]: Active
pIC50 [31]: < 5.00
GI50 (BT-474): 18 nM
pIC50 (Angiopoietin-1 receptor): < 5.00
pIC50 [32]: < 5.00
pIC50 [33]: 5.25
Structure (SMILES): O=C(NCCO)C1=Cc2c(ncnc2Nc2ccc(Oc3cccc4sccc34)c(Cl)c2)NCC1

GI50 (BT-474): 17 nM
Structure (SMILES): CC(C)(O)CC(=O)NCCn1ccc2ncnc(Nc3ccc(Oc4cccc(C(F)(F)F)c4)c(Cl)c3)c21 [TAK-285]
